Test: xn = mol fraction of the nth substance listed

OCCOCCOCCO + COCCO
viscosity [mPa·s], 101 kPa
Settings	293.15 K	298.15 K	303.15 K
x2 = 0.0555	35.94	30.26	26.08
x2 = 0.1005	32.08	27.25	23.69
x2 = 0.1526	27.98	24.06	21.13
x2 = 0.201	24.53	21.36	18.93
x2 = 0.2544	21.12	18.65	16.69
x2 = 0.3016	18.45	16.49	14.87
x2 = 0.3421	16.37	14.79	13.44
x2 = 0.4006	13.74	12.58	11.54
x2 = 0.4493	11.83	10.95	10.13
x2 = 0.4936	10.3	9.622	8.98
x2 = 0.5499	8.592	8.124	7.664
x2 = 0.6007	7.271	6.95	6.621
x2 = 0.6501	6.157	5.943	5.714
x2 = 0.7042	5.105	4.973	4.825
x2 = 0.7531	4.289	4.207	4.115
x2 = 0.7931	3.714	3.65	3.584
x2 = 0.8455	3.061	2.991	2.954
x2 = 0.9009	2.487	2.385	2.346
x2 = 0.95	2.069	1.924	1.856

CCOC(=O)OCC + CC(C)OC(C)C
viscosity [mPa·s], 100 kPa
Settings	x1 = 0.0986	x1 = 0.1988	x1 = 0.3012	x1 = 0.4026	x1 = 0.4998	x1 = 0.5976	x1 = 0.7008	x1 = 0.8014	x1 = 0.9009
303.15 K	0.325	0.351	0.379	0.409	0.442	0.481	0.528	0.58	0.636
308.15 K	0.309	0.332	0.359	0.387	0.419	0.455	0.497	0.546	0.599
313.15 K	0.296	0.317	0.341	0.369	0.398	0.432	0.472	0.516	0.566

CCC#N + COC(C)=O
303.15 K, 101.33 kPa
Settings	viscosity [mPa·s]
x1 = 0.1119	0.35
x1 = 0.2022	0.3551
x1 = 0.2958	0.3608
x1 = 0.4008	0.3657
x1 = 0.4952	0.3692
x1 = 0.5946	0.3732
x1 = 0.6967	0.3773
x1 = 0.7985	0.3811
x1 = 0.9022	0.3857

CCCCCCCCCCO + Cc1ccccc1
viscosity [mPa·s], 101 kPa
Settings	298.15 K	308.15 K
x2 = 0.0507	10.3	7.108
x2 = 0.1015	9.101	6.203
x2 = 0.1473	8.207	5.499
x2 = 0.2091	7.146	4.673
x2 = 0.2577	6.303	4.079
x2 = 0.3006	5.584	3.647
x2 = 0.3496	4.913	3.173
x2 = 0.4028	4.195	2.786
x2 = 0.4516	3.678	2.398
x2 = 0.4989	3.222	2.122
x2 = 0.5497	2.797	1.832
x2 = 0.6009	2.439	1.569
x2 = 0.6498	2.13	1.393
x2 = 0.7065	1.819	1.159
x2 = 0.7524	1.537	1.047
x2 = 0.8069	1.308	0.858
x2 = 0.8472	1.071	0.798
x2 = 0.9063	0.807	0.687
x2 = 0.953	0.608	0.585

Cc1ccccc1C + CCCCO
308.15 K, 101 kPa
Settings	viscosity [mPa·s]
x2 = 0.0515	0.62
x2 = 0.1019	0.659
x2 = 0.1872	0.672
x2 = 0.3031	0.687
x2 = 0.4127	0.752
x2 = 0.5164	0.808
x2 = 0.6146	0.912
x2 = 0.7079	1.021
x2 = 0.7965	1.135
x2 = 0.8809	1.326
x2 = 0.9612	1.564

c1ccc(Oc2ccccc2)cc1 + CCOCC
298.15 K, 101 kPa
Settings	viscosity [mPa·s]
x2 = 0.0704	3.158
x2 = 0.1318	2.737
x2 = 0.2193	2.153
x2 = 0.3297	1.631
x2 = 0.4245	1.258
x2 = 0.5102	0.9926
x2 = 0.6076	0.7614
x2 = 0.7088	0.5733
x2 = 0.7826	0.4552
x2 = 0.9092	0.3106

OCCOCCOCCO + CCOC(C)=O
101 kPa
Settings	viscosity [mPa·s]
298.15 K, x2 = 0.1482	22.05
308.15 K, x2 = 0.0466	18.65

— the CheMixHub viscosity set
